Experimental data as given in ChEMBL document CHEMBL1133262, “Studies on the novel anti-staphyloccal compound nematophin” (2000).
≈ marks a conversion by molar mass, not a printed value. Calls of active or inactive are those of the source. The rule behind the calls is not given here.

Key:
[1] = test system: Bacillus subtilis; experiment: Minimum inhibitory concentration against Bacillus subtilis; type: functional
[2] = test system: Staphylococcus aureus; experiment: Activity against methicillin sensitive organism Staphylococcus aureus 853 in presence of serum.; type: functional, organism-based
[3] = test system: Staphylococcus aureus; experiment: Minimum inhibitory concentration against methicillin resistant organism Staphylococcus aureus COL; type: functional
[4] = test system: Staphylococcus aureus; experiment: Minimum inhibitory concentration against methicillin sensitive organism Staphylococcus aureus 853; type: functional

| Compound | MIC [1] | MIC [2] | MIC [3] | MIC [4] |
| --- | --- | --- | --- | --- |
| CCC(C)C(=O)C(=O)NCCc1c(-c2ccccc2)[nH]c2ccccc12 (stereo unspecified) | 8 µg/mL (≈ 23 µM) | inactive | 0.06 µg/mL (≈ 0.172 µM) | < 0.03 µg/mL |
| O=C1c2ccccc2C(=O)N1CCn1c(-c2ccccc2)nc2ccccc21 |  | inactive |  |  |
| CCC(C)C(=O)C(=O)NCCc1cn(Cc2ccccc2)c2ccccc12 (stereo unspecified) | > 32 µg/mL | inactive | > 32 µg/mL | 2 µg/mL (≈ 5.52 µM) |
| CCC(C)C(=O)C(=O)NCCc1c(-c2ccc[n+](C)c2)[nH]c2ccccc12.[I-] (stereo unspecified) | > 32 µg/mL | inactive |  | > 32 µg/mL |
| O=C1c2ccccc2C(=O)N1CCc1c(-c2cccnc2)[nH]c2ccccc12 |  | inactive |  |  |
| O=C1c2ccccc2C(=O)N1CCn1cnc2ccccc21 |  | inactive |  |  |
| CCC(C)C(=O)C(=O)NCCc1c(-c2cccnc2)[nH]c2ccccc12 (stereo unspecified) | > 32 µg/mL | inactive | 4 µg/mL (≈ 11.4 µM) | 0.5 µg/mL (≈ 1.43 µM) |
| O=[N+]([O-])c1ccccc1F |  | inactive |  |  |
| CCC(C)C(=O)C(=O)NCCn1c(-c2ccccc2)[n+](C)c2ccccc21.[I-] (stereo unspecified) | > 32 µg/mL | inactive |  | > 32 µg/mL |
| CCC(C)C(=O)C(=O)NCCn1cnc2ccccc21 (stereo unspecified) | > 32 µg/mL | inactive |  | > 32 µg/mL |
| CCC(C)C(=O)C(=O)NCCn1c[n+](C)c2ccccc21.[I-] (stereo unspecified) | > 32 µg/mL | inactive |  | > 32 µg/mL |
| O=C1c2ccccc2C(=O)N1CCc1c(-c2ccccc2)[nH]c2ccccc12 |  | inactive |  |  |
| O=C1c2ccccc2C(=O)N1CCc1c[nH]c2ccccc12 |  | inactive |  |  |
| CCC(C)C(=O)C(=O)NCCc1c[nH]c2ccccc12 (stereo unspecified) | > 32 µg/mL | inactive | 16 µg/mL (≈ 58.7 µM) | 2 µg/mL (≈ 7.34 µM) |
| CCC(C)C(=O)C(=O)NCCc1c(-c2ccc[n+](CC(N)=O)c2)[nH]c2ccccc12.[I-] (stereo unspecified) | > 32 µg/mL | inactive |  | > 32 µg/mL |
| CCC(C)C(=O)C(=O)NCCn1c(-c2ccccc2)nc2ccccc21 (stereo unspecified) | > 32 µg/mL | inactive | 16 µg/mL (≈ 45.8 µM) | 8 µg/mL (≈ 22.9 µM) |
